# Literature values, collected in patent publication US20100273275A1, “Methods of determining levels of steroid fractions utilizing SHBG calculations” (priority 2005, published 2010).
# Tests used:
# SHBG = molecular target: T1, SHBG (Homo sapiens, UniProt P04278); conditions: for KPS (association constant for SHBG-binding to a steroid ligand): constants used for calculations, Dunn et al. (1981), Moll et al. (1981), Rosner (1991)
# T1 sequence (P04278 30-402): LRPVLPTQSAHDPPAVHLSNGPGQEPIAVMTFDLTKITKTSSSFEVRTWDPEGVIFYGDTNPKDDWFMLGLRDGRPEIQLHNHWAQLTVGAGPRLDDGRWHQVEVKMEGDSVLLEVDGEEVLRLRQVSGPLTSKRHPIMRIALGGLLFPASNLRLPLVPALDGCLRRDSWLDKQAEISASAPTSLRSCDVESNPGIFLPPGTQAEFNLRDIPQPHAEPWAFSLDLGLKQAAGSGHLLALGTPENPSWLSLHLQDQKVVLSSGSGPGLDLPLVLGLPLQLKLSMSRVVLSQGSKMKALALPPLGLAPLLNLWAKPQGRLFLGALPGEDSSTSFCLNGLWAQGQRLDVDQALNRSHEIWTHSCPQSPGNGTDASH
# albumin = albumin (Homo sapiens, UniProt P02768); conditions: for KAS (association constant for albumin-binding to a steroid ligand): constants used for calculations, Dunn et al. (1981), Moll et al. (1981), Rosner (1991)
# Sequence of albumin (P02768 25-609): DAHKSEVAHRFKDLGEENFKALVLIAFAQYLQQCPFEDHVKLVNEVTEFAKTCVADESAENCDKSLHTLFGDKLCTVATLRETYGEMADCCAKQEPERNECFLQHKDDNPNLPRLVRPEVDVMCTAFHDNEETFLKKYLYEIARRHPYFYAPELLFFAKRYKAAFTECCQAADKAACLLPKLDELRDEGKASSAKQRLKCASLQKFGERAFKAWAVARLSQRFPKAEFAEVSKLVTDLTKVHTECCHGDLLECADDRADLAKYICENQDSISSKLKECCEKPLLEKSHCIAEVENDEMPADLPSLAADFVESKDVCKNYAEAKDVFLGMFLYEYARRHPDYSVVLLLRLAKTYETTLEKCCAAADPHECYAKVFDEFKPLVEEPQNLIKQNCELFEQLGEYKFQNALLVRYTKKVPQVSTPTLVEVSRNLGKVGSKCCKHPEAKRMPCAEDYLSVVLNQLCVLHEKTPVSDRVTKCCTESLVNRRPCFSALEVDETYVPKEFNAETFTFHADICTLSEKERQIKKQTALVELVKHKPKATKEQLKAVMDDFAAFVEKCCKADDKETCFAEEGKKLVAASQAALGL
# [1] = constant used for free and bioavailable testosterone calculation
Compound,KPS (association constant for SHBG-binding to a steroid ligand) (SHBG),KAS (association constant for albumin-binding to a steroid ligand) (albumin),"KS (association constant, SHBG) (SHBG; [1])","KA (association constant, albumin) (albumin; [1])"
C[C@]12CCC(=O)C=C1CC[C@@H]1[C@@H]2CC[C@]2(C)C(=O)CC[C@@H]12 [Androstenedione],0.029 [M^−1] × 10^9,20000 [M^−1],–,–
C[C@]12CC[C@H](O)CC1=CC[C@@H]1[C@@H]2CC[C@]2(C)C(=O)CC[C@@H]12 [Dehydroepiandrosterone],–,40000 [M^−1],–,–
C[C@]12CC[C@H](O)CC1=CC[C@@H]1[C@@H]2CC[C@]2(C)C(=O)CC[C@@H]12 [Dihydroandrosterone],–,180000 [M^−1],–,–
C[C@]12CCC(=O)C[C@@H]1CC[C@@H]1[C@@H]2CC[C@]2(C)[C@@H](O)CC[C@@H]12 [Dihydrotestosterone],2.0 [M^−1] × 10^9,79800 [M^−1],–,–
C[C@]12CC[C@H]3[C@@H](CCC4=CC(=O)CC[C@@]43C)[C@@H]1CC[C@@H]2O [Testosterone],–,36000 [M^−1],1e+09 L/mol,36000 L/mol
